For orientation: Vd means the apparent volume that relates the amount in the body to the concentration in plasma or blood. A lower Vd goes with confinement near the circulation. One may read the clearance as the volume of plasma or blood freed of the substance per unit of time. In general, half-life refers to the time needed for the level to fall by half in the phase considered.

A short description of the series: in vivo. The arrangement: species or system Sprague-Dawley rats. The conditions noted are these: rat, iv, 0.033 mg/kg. The method, then: Peptides were dissolved in sterile saline and administered as a 1-hour intravenous infusion to non-fasted male Sprague-Dawley rats (n=3 per group) via femoral vein cannula at a final dose of 0.033 mg/kg. […] Blood samples (approximately 250 μL) were collected for pharmacokinetic analysis via a jugular vein cannula at 0.25, 0.5, 0.75, 1, 1.17, 1.33, 1.5, 2, 4, 6, 8, 24, 30 and 48 hr post-start of infusion into microtainer tubes containing K2EDTA as anticoagulant and 25 μL of a protease inhibitor cocktail. Plasma was prepared by centrifugation and stored at −80° C. until analysis. The results of this analysis are shown in Table 9 and few exemplars in FIGS. 3a-3b. […]
A 60 μL aliquot of each plasma sample was placed into to a 96-well plate. To each well was added 6 μL of 0.5% Tween-20. Plates were then vortexed mixed for 10 minutes at 1200 rpm before 180 μL of 0.1% TFA in 2:1 ethanol:acetonitrile containing an appropriate internal standard was added to each well. Plates were vortex mixed for 5 min at 1300 rpm, and then centrifuged for 10 min at 2844×g. Supernatants (180 μL) were placed into a clean 96-well plate and evaporated under a nitrogen stream at 45° C. Residues were reconstituted in 80 μL of 20% acetonitrile (aq) containing 0.1% formic acid.
A […] aliquot of each plasma sample was diluted with […] of 10 mM ammonium acetate (pH 6.8) containing an appropriate internal standard and loaded onto an Oasis WCX microElution plate (Waters Corporation, Milford, MA) that had been pre-conditioned with […] of methanol and […] of deionized water. Samples were washed with […] of 5% ammonium hydroxide (aq) followed by […] of 20% acetonitrile in water. The analyte was eluted with […] of 5% formic acid in 75:25 acetonitrile:water. The eluent was dried under a nitrogen stream. Residues were reconstituted in 80 μL of 20% acetonitrile (aq) containing 0.1% formic acid.
All calibration standards were prepared in control rat plasma containing K2EDTA and protease inhibitor cocktail.
Samples and standards were analyzed by TurbolonSpray™ UPLC-MS/MS using a system consisting of a CTC HTS PAL auto-injector (Leap, Carrboro, NC), an Agilent Infinity 1290 system with column oven (Palo Alto, CA), a Valco switching valve (Houston, TX), and either an AB Sciex API 5600 TripleTOF™ or Sciex API 4000QTrap mass spectrometer (Framingham, MA). Samples were injected onto a 2.1×50 mm reverse phase C18 analytical column, typically a Waters CORTECS UPLC C18+, 1.6 μm (Waters Corporation, Milford, MA) or similar. […] Initial conditions consisted of 90% A and 10% B. The organic component was increased to 95% B over a period of 3-4 minutes, depending on the peptide. Typical flow rates were 600 μL/min. The column temperature was held constant at 40 or 50° C. Peptides were quantified by monitoring one or more product ions produced from a multiply charged parent ion.

Molecules are shown by their SMILES. Starred links: 1 amine or outer side, 2 acyl side, 3 side chain; linkers in the order of their positions; H or OH if unused. Positions of bridges follow the written chain, without caps; N, C: chain ends. Non-standard residues stand in square brackets, D forms with d. Residues, ends and D or L forms follow the SMILES beside them. Groups on a side chain read outwards from the residue. *: point of attachment. γGlu = O=C(O)[C@H](CCC(=O)[*:2])N[*:1]; HOOC(CH2)6CO = O=C(O)CCCCCCC(=O)*; Palmitoyl = CCCCCCCCCCCCCCCC(=O)*; AEEA = NCCOCCOCC(=O)O

`CCCCCCCCCCCCCCCC(=O)N[C@@H](CCC(=O)NCCCC[C@H](NC(=O)[C@H](CC(C)C)NC(=O)[C@H](CCC(=O)O)NC(=O)[C@H](CC(N)=O)NC(=O)[C@H](C)NC(=O)[C@H](CC(C)C)NC(=O)[C@H](CCCNC(=N)N)NC(=O)[C@H](CCC(N)=O)NC(=O)[C@@H](NC(=O)[C@H](C)NC(=O)[C@@H]1CSSC[C@H](NC(=O)[C@@H](N)CO)C(=O)N[C@@H](CC(N)=O)C(=O)N[C@@H]([C@@H](C)O)C(=O)N[C@@H](CO)C(=O)N[C@@H]([C@@H](C)O)C(=O)N1)[C@@H](C)O)C(=O)N[C@@H](CCCCN)C(=O)N[C@@H](CO)C(=O)N[C@@H](CO)C(=O)N[C@@H](CC(N)=O)C(=O)N[C@@H](CC(N)=O)C(=O)N[C@@H](Cc1ccccc1)C(=O)NCC(=O)N1CCC[C@H]1C(=O)N[C@H](C(=O)N[C@@H](CC(C)C)C(=O)N1CCC[C@H]1C(=O)N1CCC[C@H]1C(=O)N[C@H](C(=O)N[C@@H](CCCCN)C(=O)N[C@H](C(=O)NCC(=O)N[C@@H](CO)C(=O)N[C@@H](CCC(=O)O)C(=O)N[C@H](C(=O)N[C@@H](Cc1ccc(O)cc1)C(N)=O)[C@@H](C)O)C(C)C)[C@@H](C)O)[C@@H](C)CC)C(=O)O` [Compound A10] (H-SCNTSTCATQRLANELK([γGlu-Palmitoyl])KSSNNFGPILPPTKVGSETY-NH2; disulfide 2-7) had a Vd of 0.245 L/kg, a clearance of 3.72 mL/min/kg and a half-life of 0.965 h.

`CCCCCCCCCCCCCCCC(=O)N[C@@H](CCC(=O)NCCOCCOCC(=O)NCCOCCOCC(=O)NCCCC[C@@H](NC(=O)[C@H](CCC(=O)O)NC(=O)[C@H](CC(N)=O)NC(=O)[C@H](C)NC(=O)[C@H](CC(C)C)NC(=O)[C@H](CCCNC(=N)N)NC(=O)[C@H](CCC(N)=O)NC(=O)[C@@H](NC(=O)[C@H](C)NC(=O)[C@@H]1CSSC[C@H](NC(=O)[C@@H](N)CO)C(=O)N[C@@H](CC(N)=O)C(=O)N[C@@H]([C@@H](C)O)C(=O)N[C@@H](CO)C(=O)N[C@@H]([C@@H](C)O)C(=O)N1)[C@@H](C)O)C(=O)N[C@@H](Cc1c[nH]cn1)C(=O)N[C@@H](CCCCN)C(=O)N[C@@H](CO)C(=O)N[C@@H](CO)C(=O)N[C@@H](CC(N)=O)C(=O)N[C@@H](CC(N)=O)C(=O)N[C@@H](Cc1ccccc1)C(=O)NCC(=O)N1CCC[C@H]1C(=O)N[C@H](C(=O)N[C@@H](CC(C)C)C(=O)N1CCC[C@H]1C(=O)N1CCC[C@H]1C(=O)N[C@H](C(=O)N[C@@H](CCCCN)C(=O)N[C@H](C(=O)NCC(=O)N[C@@H](CO)C(=O)N[C@@H](CCC(=O)O)C(=O)N[C@H](C(=O)N[C@@H](Cc1ccc(O)cc1)C(N)=O)[C@@H](C)O)C(C)C)[C@@H](C)O)[C@@H](C)CC)C(=O)O` [Compound A12] (H-SCNTSTCATQRLANE[dK]([AEEA-AEEA-γGlu-Palmitoyl])HKSSNNFGPILPPTKVGSETY-NH2; disulfide 2-7; N-terminus assumed) had a Vd of 0.252 L/kg, a clearance of 1.55 mL/min/kg and a half-life of 2.47 h.

`CCCCCCCCCCCCCCCC(=O)N[C@@H](CCC(=O)N[C@@H](CCC(=O)N[C@@H](CCC(=O)N[C@@H](CCC(=O)N[C@@H](CCC(=O)NCCCC[C@H](NC(=O)[C@H](CCC(=O)O)NC(=O)[C@H](CC(N)=O)NC(=O)[C@H](C)NC(=O)[C@H](CC(C)C)NC(=O)[C@H](CCCNC(=N)N)NC(=O)[C@H](CCC(N)=O)NC(=O)[C@@H](NC(=O)[C@H](C)NC(=O)[C@@H]1CSSC[C@H](NC(=O)[C@@H](N)CO)C(=O)N[C@@H](CC(N)=O)C(=O)N[C@@H]([C@@H](C)O)C(=O)N[C@@H](CO)C(=O)N[C@@H]([C@@H](C)O)C(=O)N1)[C@@H](C)O)C(=O)N[C@@H](Cc1c[nH]cn1)C(=O)N[C@@H](CCCCN)C(=O)N[C@@H](CO)C(=O)N[C@@H](CO)C(=O)N[C@@H](CC(N)=O)C(=O)N[C@@H](CC(N)=O)C(=O)N[C@@H](Cc1ccccc1)C(=O)NCC(=O)N1CCC[C@H]1C(=O)N[C@H](C(=O)N[C@@H](CC(C)C)C(=O)N1CCC[C@H]1C(=O)N1CCC[C@H]1C(=O)N[C@H](C(=O)N[C@@H](CCCCN)C(=O)N[C@H](C(=O)NCC(=O)N[C@@H](CO)C(=O)N[C@@H](CCC(=O)O)C(=O)N[C@H](C(=O)N[C@@H](Cc1ccc(O)cc1)C(N)=O)[C@@H](C)O)C(C)C)[C@@H](C)O)[C@@H](C)CC)C(=O)O)C(=O)O)C(=O)O)C(=O)O)C(=O)O` [Compound A14] (H-SCNTSTCATQRLANEK([γGlu-γGlu-γGlu-γGlu-γGlu-Palmitoyl])HKSSNNFGPILPPTKVGSETY-NH2; disulfide 2-7) gave a Vd of 0.163 L/kg, a clearance of 0.183 mL/min/kg and a half-life of 11.3 h.

For the compound `CC[C@H](C)[C@H](NC(=O)[C@@H]1CCCN1C(=O)CNC(=O)[C@H](Cc1ccccc1)NC(=O)[C@H](CC(N)=O)NC(=O)[C@H](CC(N)=O)NC(=O)[C@H](CO)NC(=O)[C@H](CO)NC(=O)[C@H](CCCCN)NC(=O)[C@H](Cc1c[nH]cn1)NC(=O)[C@H](CC(C)C)NC(=O)[C@H](CCCCNC(=O)CCCCCCC(=O)O)NC(=O)[C@H](CC(N)=O)NC(=O)[C@H](C)NC(=O)[C@H](CC(C)C)NC(=O)[C@H](CCCNC(=N)N)NC(=O)[C@H](CCC(N)=O)NC(=O)[C@@H](NC(=O)[C@H](C)NC(=O)[C@@H]1CSSC[C@H](NC(=O)[C@@H](N)CO)C(=O)N[C@@H](CC(N)=O)C(=O)N[C@@H]([C@@H](C)O)C(=O)N[C@@H](CO)C(=O)N[C@@H]([C@@H](C)O)C(=O)N1)[C@@H](C)O)C(=O)N[C@@H](CC(C)C)C(=O)N1CCC[C@H]1C(=O)N1CCC[C@H]1C(=O)N[C@H](C(=O)N[C@@H](CCCCN)C(=O)N[C@H](C(=O)NCC(=O)N[C@@H](CO)C(=O)N[C@@H](CCC(=O)O)C(=O)N[C@H](C(=O)N[C@@H](Cc1ccc(O)cc1)C(N)=O)[C@@H](C)O)C(C)C)[C@@H](C)O` [Compound A18] (H-SCNTSTCATQRLANK(HOOC(CH2)6CO)LHKSSNNFGPILPPTKVGSETY-NH2; disulfide 2-7), the Vd was 0.805 L/kg, the clearance turned out to be 19.4 mL/min/kg and the half-life is 0.508 h.

Turning to `CCCCCCCCCCCCCCCC(=O)N[C@@H](CCC(=O)N[C@@H](CCC(=O)N[C@@H](CCC(=O)NCCOCCOCC(=O)NCCOCCOCC(=O)N[C@@H](CCC(=O)NCCCC[C@H](NC(=O)[C@H](CCC(=O)O)NC(=O)[C@H](CC(N)=O)NC(=O)[C@H](C)NC(=O)[C@H](CC(C)C)NC(=O)[C@H](CCCNC(=N)N)NC(=O)[C@H](CCC(N)=O)NC(=O)[C@@H](NC(=O)[C@H](C)NC(=O)[C@@H]1CSSC[C@H](NC(=O)[C@@H](N)CO)C(=O)N[C@@H](CC(N)=O)C(=O)N[C@@H]([C@@H](C)O)C(=O)N[C@@H](CO)C(=O)N[C@@H]([C@@H](C)O)C(=O)N1)[C@@H](C)O)C(=O)N[C@@H](Cc1c[nH]cn1)C(=O)N[C@@H](CCCCN)C(=O)N[C@@H](CO)C(=O)N[C@@H](CO)C(=O)N[C@@H](CC(N)=O)C(=O)N[C@@H](CC(N)=O)C(=O)N[C@@H](Cc1ccccc1)C(=O)NCC(=O)N1CCC[C@H]1C(=O)N[C@H](C(=O)N[C@@H](CC(C)C)C(=O)N1CCC[C@H]1C(=O)N1CCC[C@H]1C(=O)N[C@H](C(=O)N[C@@H](CCCCN)C(=O)N[C@H](C(=O)NCC(=O)N[C@@H](CO)C(=O)N[C@@H](CCC(=O)O)C(=O)N[C@H](C(=O)N[C@@H](Cc1ccc(O)cc1)C(N)=O)[C@@H](C)O)C(C)C)[C@@H](C)O)[C@@H](C)CC)C(=O)O)C(=O)O)C(=O)O)C(=O)O` [Compound A19] (H-SCNTSTCATQRLANEK([γGlu-AEEA-AEEA-γGlu-γGlu-γGlu-Palmitoyl])HKSSNNFGPILPPTKVGSETY-NH2; disulfide 2-7; N-terminus assumed), the Vd came out at 0.136 L/kg, the clearance was found to be 0.15 mL/min/kg and the half-life is 11.5 h.

The values are drawn from US12018059B2, “Human amylin analog polypeptides and methods of use” (Intarcia Therapeutics, Inc., priority 2018, dated 2024).
